Source: patent US9827184B2, “Peelable transparent diamond nail-care coat” (LES FINS NETWORK TECHNOLOGY CO.,LTD., priority 2015, dated 2017)

What was measured:
Assay in all cases: MTT microplate growth inhibition (MIC50) in MH culture medium
Format in all cases: cell-based
Details in all cases: 96-well plate, 37° C., 24 h, OD 570 nm, unit not given, test concentrations given in μg·ML^−1
epidermophyton floccosum = system: epidermophyton floccosum
Method: (§1) Bacteria (trichophylon rubrum, trichophyton mentagrophytes and epidermophyton fioccosum) are suspended in an MH culture medium with a dispersion concentration of about 10^5 cfu·ML^−1, and bacterium solution is added onto a 96-well plate (100 μL of the bacterium solution is added in each well); and the culture medium is taken as blank control, DMSO is taken as negative control for replacing a test substance, and itraconazole (Xian-Janssen Pharmaceutical Co., Ltd.) is taken as positive control. […] The 96-well plate is placed in an incubator at 37° C. and cultured for 24 h, then 25 μL of PBS containing 4 mg of MTT per mL is added in each well and cultured for 4 h under the same condition, and 100 μL of SDS lysate (95 mL of tri-distilled water+10 g of SDS+5 mL of isopropanol+0.1 mL of concentrated hydrochloric acid) is added in each well and then cultured for 12 h. An OD value is measured by a microplate reader at 570 nm, and an inhibition percent is calculated as follows: [formula]

trichophyton rubrum = system: trichophyton rubrum
Method: as §1

[1] = system: trichophyton mentagrophytes
Method: as §1

Row | Structure (SMILES) | 50% minimum inhibitory concentration (MIC50) for epidermophyton floccosum (epidermophyton floccosum) | 50% minimum inhibitory concentration (MIC50) for trichophyton rubrum (trichophyton rubrum) | 50% minimum inhibitory concentration (MIC50) for trichophyton mentagrophytes [1]
1 | COc1ccc(-c2cc(=O)c3cc(O)c(OC)c4c3n2OC2OC(C)=C(O)C=C2C4)cc1 (stereo not drawn) [compound of formula I] | 0.82 | 0.63 | 0.60
2 | CCC(C)n1ncn(-c2ccc(N3CCN(c4ccc(OCC5COC(Cn6cncn6)(c6ccc(Cl)cc6Cl)O5)cc4)CC3)cc2)c1=O (stereo not drawn) [itraconazole] | 0.65 | 0.63 | 0.70
